According to US20240190855A1 (Relay Therapeutics, Inc., priority 2021, published 2024):

Each molecule was assayed against T1, CDK2/Cyclin E complex (Homo sapiens, UniProt P24941) (assay: CDK2/Cyclin E fluorescence-based microfluidic mobility shift assay (CDK2 Biochemical Caliper Assay)). Details: read-out: Biochemical CDK2/CyclinE Caliper IC50.
T1 construct: purchased Eurofins 14-475
Description: Compounds of the present disclosure were tested in a CDK2/Cyclin E fluorescence-based microfluidic mobility shift assay (PerkinElmer).
The active wild type CDK2/Cyclin E complex was purchased from Eurofins (14-475). Compound stocks were prepared in DMSO and were serially diluted into 11 concentrations by 3-fold dilution. […] Compounds were incubated in the presence of CDK2/Cyclin E complex and ATP for 30 minutes at room temperature. Catalytic reaction was initiated with the addition of 5 uL of a 4× peptide solution containing 6 uM fluorescently label substrate peptide, FL Peptide 18 (aa sequence 5-FAM-QSPKKG, PerkinElmer, 760362) in 1× reaction buffer.
The final reaction components were 0.1 nM CDK2/Cyclin E, 2000 uM ATP and 1.5 uM FL Peptide 18 and 1% DMSO. Reactions were incubated RT for 20 hr and terminated with 75 uL of a stopping solution containing 0.5 M EDTA. Samples were analyzed using a LabChip EZ reader (PerkinElmer).

IC50	Compound
≤ 100 nM	Cn1nc(COC(F)(F)F)cc1C(=O)Nc1cc([C@@H]2C[C@H](OC(=O)NC34CC(C#N)(C3)C4)CO2)[nH]n1 [Example 912]
1000 to 100000 nM	O=C1COc2ncnc(Nc3cc(C4CCCC4)[nH]n3)c2N1 [Example 831]
≤ 100 nM	Cn1nc(COCC(F)(F)F)cc1C(=O)Nc1cc([C@H]2C[C@@H](OC(=O)NC3(C)CC3)CO2)[nH]n1 [Example 771]
≤ 100 nM	CC1(NC(=O)O[C@H]2CO[C@@H](c3cc(Nc4nccn5nc(C(F)F)cc45)n[nH]3)C2)CC1 [Example 769]
1000 to 100000 nM	c1cc(Nc2cc(C3CCCC3)[nH]n2)n2ccnc2n1 [Example 837]
≤ 100 nM	Cc1cc(CC(=O)Nc2cc([C@@H]3C[C@H](OC(=O)NC4(C)CC4)CO3)[nH]n2)on1 (single isomer, unassigned) [Example 69]
≤ 100 nM	COCc1cn2c(Nc3cc([C@H]4C[C@@H](OC(=O)NC5(C)CC5)CO4)[nH]n3)nccc2n1 [Example 906]
1000 to 100000 nM	Cc1ncccc1O[C@@H]1CO[C@H](c2cc(Nc3nccn4nccc34)n[nH]2)C1 [Example 521]
≤ 100 nM	Cn1nc(COC(F)(F)F)cc1C(=O)Nc1cc([C@H]2C[C@@H](OC(=O)NC(C)(C)C#N)CO2)[nH]n1 [Example 879]
≤ 100 nM	C[C@H]1CC[C@H](C)N1C(=O)OC[C@H]1C[C@@H](c2cc(Nc3ccc4c(n3)C(C)(C)NC4=O)n[nH]2)C1 (racemic) [Example 593]
100 to 250 nM	Cc1cc(CC(=O)Nc2cc([C@H]3CC[C@@H](Oc4cnccc4C)C3)[nH]n2)on1 (single isomer, unassigned) [Example 380]
≤ 100 nM	Cn1nc(CCOC(F)(F)F)cc1C(=O)Nc1cc([C@H]2C[C@@H](OC(=O)NC3(C)CC3)CO2)[nH]n1 [Example 791]
100 to 250 nM	COCc1cc(C(=O)Nc2cc([C@H]3C[C@@H](COc4cn(C)nc4C(C)C)C3)[nH]n2)n(C)n1 [Example 623]
≤ 100 nM	Cn1nc(COC(F)(F)F)cc1C(=O)Nc1cc([C@H]2C[C@@H](OC(=O)NC34CC(C3)C4)CO2)[nH]n1 [Example 750]
250 to 1000 nM	CC(C)NC(=O)OC[C@H]1C[C@H](c2cc(Nc3nccc4ncsc34)n[nH]2)C1 [Example 457]
≤ 100 nM	COCc1cc2c(Nc3cc([C@H]4C[C@@H](OC(=O)C5CCC5(C)C)CO4)[nH]n3)nccn2n1 (some centres unmarked) [Example 726]
1000 to 100000 nM	c1cncc(O[C@@H]2CC[C@H](c3cc(Nc4nccn5nccc45)n[nH]3)C2)c1 (single isomer, unassigned) [Example 504]
1000 to 100000 nM	COc1ccc2cnnc(Nc3cc(C4CCCC4)[nH]n3)c2c1 [Example 878]
≤ 100 nM	Cc1cc(CC(=O)Nc2cc([C@@H]3C[C@H](Oc4nnccc4C(C)C)CO3)[nH]n2)on1 [Example 407]
≤ 100 nM	CC(=O)Nc1cc([C@@H]2CC[C@H](Oc3nscc3C3CC3)C2)[nH]n1 (single isomer, unassigned) [Example 422]
1000 to 100000 nM	COCc1cc(C(=O)Nc2cc([C@@H]3CC[C@H](Oc4cccnc4C(F)F)C3)[nH]n2)n(C)n1 (single isomer, unassigned) [Example 503]
≤ 100 nM	Cn1ncc2cnc(Nc3cc([C@H]4C[C@@H](OC(=O)NC5(C)CC5)CO4)[nH]n3)cc21 [Example 724]
100 to 250 nM	COCc1cc2c(Nc3cc([C@@H]4CC[C@H](Oc5cccnc5C)C4)[nH]n3)nccn2n1 (single isomer, unassigned) [Example 512]
1000 to 100000 nM	Cc1cc(CC(=O)Nc2cc([C@H]3CC[C@@H](CC(=O)O)C3)[nH]n2)on1 (single isomer, unassigned) [Example 341]
≤ 100 nM	Cc1cc(CC(=O)Nc2cc([C@H]3CC[C@@H](Oc4cnccc4C4CC4)C3)[nH]n2)on1 (single isomer, unassigned) [Example 381]
100 to 250 nM	CO[C@H](c1cc(C(=O)Nc2cc([C@H]3C[C@@H](OC(=O)NC4(C)CC4)CO3)[nH]n2)n(C)n1)C(F)(F)F (single isomer, unassigned) [Example 889]
